According to article PMC5469811, “Identification of GXXXXG motif in Chrysophsin-1 and its implication in the design of analogs with cell-selective antimicrobial and anti-endotoxin activities” (Scientific Reports, 2017):
Converted amounts (≈) assume the structure as drawn.

What was measured:
Experiment in all cases: microbe, parasite or virus in culture
Format in all cases: cell-based
[1] = tested on: Sporothrix schenckii (Patient isolates); conditions: Sporothrix schenckii (patient isolates); NCCLS micro broth dilution, 35 °C; read-out: Minimum inhibitory concentration (MIC)
Cryptococcus neoformans = conditions: Cryptococcus neoformans; NCCLS micro broth dilution, 35 °C, 72 h, absorbance 492 nm; read-out: Minimum inhibitory concentration (MIC)
Method: (§1) The anti- fungal activity of peptides was performed according to the standard micro broth dilution technique as per NCCLS guidelines. These plates were incubated in a moist chamber at 35 °C, and an absorbance at 492 nm was recorded on a VersaMax microplate reader after 48 h for C. albicans ATCC 10231 and C. parapsilosis ATCC 22019 and 72 h for C. neoformans.

[2] = tested on: Candida parapsilosis (ATCC 22019); conditions: ATCC22019; Candida parapsilosis (ATCC 22019); NCCLS micro broth dilution, 35 °C, 48 h, absorbance 492 nm; read-out: Minimum inhibitory concentration (MIC)
Method: as §1

[3] = tested on: Candida albicans (ATCC 10231); conditions: ATCC10231; Candida albicans (ATCC 10231); NCCLS micro broth dilution, 35 °C, 48 h, absorbance 492 nm; read-out: Minimum inhibitory concentration (MIC)
Method: as §1

- MIC [1]: 6.53 µM (≈ 2 µg/mL)
- MIC (Cryptococcus neoformans): 6.53 µM (≈ 2 µg/mL)
- MIC [2]: 6.53 µM (≈ 2 µg/mL)
- MIC [3]: 3.26 µM (≈ 0.998 µg/mL)
Structure (SMILES): OC(Cn1cncn1)(Cn1cncn1)c1ccc(F)cc1F [Fluconazole, reference compound]
